Measured values published in patent publication US8685970B2, “Quinolines and related analogs as sirtuin modulators” (GlaxoSmithKline, LLC, priority 2008, dated 2014).

molecular target: T1, SIRT1 (Homo sapiens, UniProt Q96EB6); assay: Mass spectrometry based SIRT1 deacetylation assay (activation); type: biochemical; details: 10 nM SIRT1, 0.5 μM peptide substrate, 120 μM βNAD+, 25 min at 25° C.
T1 sequence (Q96EB6 1-747): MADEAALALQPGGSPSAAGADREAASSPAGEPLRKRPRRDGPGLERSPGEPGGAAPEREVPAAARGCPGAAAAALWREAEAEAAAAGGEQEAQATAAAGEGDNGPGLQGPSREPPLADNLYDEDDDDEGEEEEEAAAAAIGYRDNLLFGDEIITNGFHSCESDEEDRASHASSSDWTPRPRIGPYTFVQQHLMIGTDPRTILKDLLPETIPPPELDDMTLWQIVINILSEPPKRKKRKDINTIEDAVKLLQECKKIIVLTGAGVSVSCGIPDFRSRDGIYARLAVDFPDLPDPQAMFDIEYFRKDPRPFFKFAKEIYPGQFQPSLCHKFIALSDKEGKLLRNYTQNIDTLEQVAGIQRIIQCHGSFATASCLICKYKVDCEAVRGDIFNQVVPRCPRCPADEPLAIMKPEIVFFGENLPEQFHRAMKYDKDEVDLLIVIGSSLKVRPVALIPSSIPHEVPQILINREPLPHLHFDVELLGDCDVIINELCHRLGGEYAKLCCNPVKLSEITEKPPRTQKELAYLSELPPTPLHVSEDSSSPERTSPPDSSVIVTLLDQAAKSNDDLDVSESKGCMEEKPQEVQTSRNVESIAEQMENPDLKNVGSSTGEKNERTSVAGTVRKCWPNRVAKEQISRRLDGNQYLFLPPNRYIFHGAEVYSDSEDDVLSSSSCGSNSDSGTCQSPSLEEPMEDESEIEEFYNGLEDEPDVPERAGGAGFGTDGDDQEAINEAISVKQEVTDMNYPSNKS
Procedure, shortened: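 Recombinant N-His-tagged SIRT1 (E. coli BL21(DE3)), 10 nM, incubated 25 min at 25 °C with 0.5 μM biotin/5TMR-labelled acetyl-p53-derived 20-mer peptide and 120 μM βNAD+ in Tris-acetate pH 8 buffer with DTT and BSA. Formic acid stop; MS quantifies acetylated vs deacetylated peptide. EC1.5 = concentration giving 150% activation versus DMSO.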

Structure (SMILES)	% Fold Act. (percent maximum fold activation)	EC1.5 (concentration of test compound that results in 150% activation of SIRT1)
O=C(Nc1ccnc(N2CCCC2)c1)c1cccc2ccc(-c3cccc(C(F)(F)F)c3)nc12 [Compound 322]	A (Fold activation >200%)	A (EC1.5<1.0 uM)
O=C(Nc1ccc(CN2CCOCC2)nc1)c1cccc2ccc(-c3cccc(C(F)(F)F)c3)nc12 [Compound 291]	A (Fold activation >200%)	A (EC1.5<1.0 uM)
O=C(Nc1cccnc1)c1cccc2ccc(-c3cccc(OC(F)(F)F)c3)nc12 [Compound 25]	A (Fold activation >200%)	A (EC1.5<1.0 uM)
O=C(Nc1cccc2ccc(-c3ccccc3OCCN3CCOCC3)nc12)c1cscn1 [Compound 175]	A (Fold activation >200%)	B (EC1.5 1-25 uM)
O=C(Nc1ccncn1)c1cccc2ccc(-c3cccnc3)nc12 [Compound 208]		C (EC1.5>25 uM)
O=C(Nc1cccc(CN2CCCC2)n1)c1cccc2ccc(-c3cccnc3)nc12 [Compound 230]	A (Fold activation >200%)	B (EC1.5 1-25 uM)
FC(F)(F)c1cccc(-c2ccc3cccc(CNC4CCOCC4)c3n2)c1 [Compound 144]		C (EC1.5>25 uM)
FC(F)(F)c1cccc(-c2ccc3cccc(NCc4cccnc4)c3n2)c1 [Compound 135]		C (EC1.5>25 uM)
O=C(Nc1cccc2ccc(-c3cccc(OC(F)(F)F)c3)nc12)c1cscn1 [Compound 7]	A (Fold activation >200%)	B (EC1.5 1-25 uM)
COc1cccc(C(=O)Nc2cccc3ccc(-c4cccc(C(F)(F)F)c4)nc23)c1 [Compound 205]	B (Fold Activation <200%)	B (EC1.5 1-25 uM)
FC(F)(F)c1cccc(-c2ccc3cccc(NCC4CCCC4)c3n2)c1 [Compound 138]		C (EC1.5>25 uM)
O=C(Nc1nccs1)c1cccc2ccc(-c3ccccc3)nc12 [Compound 12]	A (Fold activation >200%)	A (EC1.5<1.0 uM)
O=C(NCc1ccncc1)c1cccc2ccc(-c3cccc(O[C@@H]4CCNC4)c3)nc12 [Compound 103]	A (Fold activation >200%)	B (EC1.5 1-25 uM)
FC(F)(F)Oc1cccc(-c2ccc3cccc(NCC4CCCC4)c3n2)c1 [Compound 141]		C (EC1.5>25 uM)
O=C(Nc1cccnc1)c1cccc2ccc(-c3cccc(C(F)F)c3)nc12 [Compound 260]	A (Fold activation >200%)	A (EC1.5<1.0 uM)
O=C(Nc1ccc(OCC(O)CO)cc1)c1cccc2ccc(-c3cccc(OC(F)(F)F)c3)nc12 (centres unmarked) [Compound 150]	A (Fold activation >200%)	A (EC1.5<1.0 uM)
O=C(NC1CCOCC1)c1cccc2ccc(-c3cccc(C(F)(F)F)c3)nc12 [Compound 39]	B (Fold Activation <200%)	B (EC1.5 1-25 uM)
Cc1cc(-c2ccc3cccc(NC(=O)c4cscn4)c3n2)ccn1 [Compound 197]	A (Fold activation >200%)	A (EC1.5<1.0 uM)
FC(F)(F)Oc1cccc(-c2ccc3cccc(NCc4cccnc4)c3n2)c1 [Compound 139]		C (EC1.5>25 uM)
O=C(Nc1nc2ccccc2s1)c1cccc2ccc(-c3cccc(C(F)(F)F)c3)nc12 [Compound 55]	A (Fold activation >200%)	A (EC1.5<1.0 uM)
O=C(Nc1ncc(CN2CCOCC2)s1)c1cccc2ccc(-c3cccnc3)nc12 [Compound 191]	A (Fold activation >200%)	B (EC1.5 1-25 uM)

Structure (SMILES)	% Fold Act. (percent maximum fold activation)	EC1.5 (concentration of test compound that results in 150% activation of SIRT1)
Cc1nnc(NC(=O)c2cccc3ccc(-c4cccnc4)nc23)o1 [Compound 264]		C (EC1.5>25 uM)
O=C(Nc1ncccn1)c1cccc2ccc(-c3cccc(C(F)(F)F)c3)nc12 [Compound 48]	A (Fold activation >200%)	A (EC1.5<1.0 uM)
O=C(Nc1cccc2ccc(-c3cc(F)cc(C(F)(F)F)c3)nc12)c1ccncc1 [Compound 160]		C (EC1.5>25 uM)
O=C(Nc1cccc2ccc(-c3cccc(C(F)(F)F)c3)nc12)c1cc[nH]n1 [Compound 224]	A (Fold activation >200%)	A (EC1.5<1.0 uM)
O=C(Nc1ccncn1)c1cccc2ccc(-c3ccnc(C(F)F)c3)nc12 [Compound 308]	A (Fold activation >200%)	A (EC1.5<1.0 uM)
Cn1ccnc1C(=O)Nc1cccc2ccc(-c3cccc(C(F)(F)F)c3)nc12 [Compound 222]	A (Fold activation >200%)	A (EC1.5<1.0 uM)
O=C(Nc1cccc(CN2CCCC2)c1)c1cccc2ccc(-c3cccc(C(F)F)c3)nc12 [Compound 316]	A (Fold activation >200%)	A (EC1.5<1.0 uM)
O=C(Nc1cccc2ccc(-c3ccccc3)nc12)c1cnccn1 [Compound 3]	A (Fold activation >200%)	A (EC1.5<1.0 uM)
O=C(Nc1ccccn1)c1cccc2ncc(-c3cccc(OC(F)(F)F)c3)nc12 [Compound 127]		C (EC1.5>25 uM)
O=C(Nc1cccc2ccc(-c3ccncc3)nc12)c1cnccn1 [Compound 155]		C (EC1.5>25 uM)
O=C(Nc1ccncn1)c1cccc2cnc(-c3cccc(C(F)(F)F)c3)nc12 [Compound 271]	B (Fold Activation <200%)	B (EC1.5 1-25 uM)
c1cncc(CNc2cccc3ccc(-c4ccncc4)nc23)c1 [Compound 146]		C (EC1.5>25 uM)
O=C(Nc1ncnc2ccc(-c3cccc(C(F)(F)F)c3)nc12)c1cncs1 [Compound 300]	A (Fold activation >200%)	B (EC1.5 1-25 uM)
Cc1noc(C)c1NC(=O)c1cccc2ccc(-c3cccc(C(F)(F)F)c3)nc12 [Compound 50]		C (EC1.5>25 uM)
O=C(Nc1nc(CN2CCOCC2)cs1)c1cccc2ccc(-c3ccccc3C(F)(F)F)nc12 [Compound 274]	A (Fold activation >200%)	A (EC1.5<1.0 uM)
Cc1nnc(NC(=O)c2cccc3ccc(-c4cccc(N5CCOCC5)c4)nc23)s1 [Compound 252]	A (Fold activation >200%)	A (EC1.5<1.0 uM)
O=C(NC1CCNCC1)c1cccc2ccc(-c3cccc(C(F)(F)F)c3)nc12 [Compound 71]	A (Fold activation >200%)	B (EC1.5 1-25 uM)
O=C(Nc1nc(CN2CCCC2)cs1)c1cccc2ccc(-c3cccc(C(F)F)c3)nc12 [Compound 261]	A (Fold activation >200%)	A (EC1.5<1.0 uM)
CS(=O)(=O)c1cccc(-c2ccc3cccc(NC(=O)c4cscn4)c3n2)c1 [Compound 81]	A (Fold activation >200%)	A (EC1.5<1.0 uM)
O=C(Nc1cccc(CN2CCCC2)n1)c1cccc2ccc(-c3cccc(C(F)(F)F)c3)nc12 [Compound 227]	A (Fold activation >200%)	A (EC1.5<1.0 uM)
O=C(Nc1ccncn1)c1cccc2ccc(-c3ccc(C(F)(F)F)cc3)nc12 [Compound 99]		C (EC1.5>25 uM)
